Test results taken from patent US20230382926A1, “COMPOUNDS AND USES THEREOF” (The University of The West Indies, priority 2022, published 2023).

Legend:
[1] = tested on: clinical isolate CR-K. pneumoniae 7225; test: Non-lethal mouse peritonitis infection model; assay type: in vivo, Swiss albino mice; settings: monotherapy at 10 mg kg^−1; preliminary dosing experiments
Description: For both lethal and non-lethal infection models involving Carbapenem resistant Klebsiella pneumoniae suitable strains, number of mice per treatment and bacterial infection dose were predetermined in preliminary experiments.
Each mouse (n=6 per group) received an intraperitoneal (i.p.) injection of 200 μl of bacterial suspension (1×10^4 CFU ml^−1).
Mice were then treated once daily for two subsequent days (i.e. 24 h and 48 h). Twenty-four-hours after the last dose, the mice were euthanized via cervical dislocation and their spleen and liver excised, homogenized in PBS and plated onto Hichrome™ Klebsiella selective media (HiMedia Laboratories, PA, USA). The plates were incubated at 35° C. for 24 h and bacterial counts were determined (CFU g^−1 organ).
Based on the significance of the SP-azaBIMs to restore the in vitro efficacy of antibiotics against high priority pathogenic bacteria, we examined if these compounds could provide proof of concept that they could be used to treat in vivo infections. To test this, we performed both non-lethal and lethal intraperitoneal infection models in Swiss Albino mice.
There was a significant reduction in the K. pneumoniae load in both the liver (FIG. 2a) and spleen (FIG. 2b) for the combination therapies compared to the respective antibiotic monotherapies. […] Colistin (Col) (10 mg kg^−1) was used as the positive control in this case. K. pneumoniae load in the liver (FIG. 2a) and spleen (FIG. 2b) was determined by selective plating on Hichrome™ Klebsiella selective media. Data bars represent the average (n=6 mice per treatment group)±standard error.

[2] = tested on: Klebsiella pneumoniae ATCC BAA-2814; test: Gene expression analysis by quantitative reverse transcription PCR; assay type: cell-based; settings: for ROB gene expression compared to untreated cells / soxS gene expression compared to untreated cells: Meropenem only 0.25 MIC (8 μg mL^−1)
Description: Cell treatment and RNA extraction: Overnight cultures of Klebsiella pneumoniae ATCC BAA-2814 grown on Brain Heart Infusion (BHI) agar was harvested and washed in phosphate buffer saline (pH=7.4) twice. Fresh Brain Heart infusion broth was inoculated with K. pneumoniae cells to a final concentration of 10^6 CFU mL^−1. Cells were subjected to the following treatments: T0—Vehicle only (ddH2O); T1—Meropenem only (0.25 MIC; 8 μg mL^−1); T2—Meropenem 0.25 MIC+SP-azaBIM 136 (2 ug mL^−1). Treated cells were incubated at 35° C. at 200 rpm and total RNA was extracted at 1 h and 6 h post exposure using TRIzol reagent (Life Technologies) following the manufacturer's protocol before eluting in DEPC treated water. Three biological replicates were included for each treatment.
Quantitative reverse transcription PCR analysis: Reverse transcription was done using the GoScript Reverse Transcriptase Kit (Promega, USA) employing a mixture (1:1) of random and oligo dT primers with 2 μg RNA as starting material in a 20-μL reaction following the manufacturers protocols. cDNA samples were then quantified by real-time PCR using specific primers in an Applied Biosystems 7500 Fast Real-Time PCR system (Life Technologies Corp., USA) and the data analysed using the 2^(−ΔΔct) method. Thermal cycling was performed using a two-step PCR amplification standard procedure at 95° C. for 30 s and 35 cycles of 95° C. for 5 s and 60° C. for 30 s. The expression levels of all the genes were normalized using the K. pneumoniae RNA polymerase sigma factor (rpoD) gene as an internal standard.
To examine this hypothesis, we investigated the expression of genes in K. pneumoniae ATCC […] that were affected by SP-azaBIM 136 treatment. Expression of key transcription factors and their associated downstream resistance and pathogenicity genes was examined in Klebsiella pneumoniae cells treated with meropenem and a combination of meropenem and SP-azaBIM 136. Cells in the exponential phase were either treated with 0.25 MIC (8 μg mL^−1) of Meropenem only or a combination of 0.25 MIC meropenem and 10 μg mL^−1 of SP-azaBIM 136. Untreated cells served as the control for baseline gene expression. Cells were exposed to each agent for 1 h and 6 h, after which the total RNA was extracted, and cDNA synthesis performed. […] The addition of SP-azaBIM 136 was theorized to revert the expression of the relevant genes closer to baseline expression levels.

[3] = tested on: Carbapenem resistant Klebsiella pneumoniae; test: Broth microdilution minimum inhibitory concentration; assay type: cell-based; settings: compound alone
Description: (§1) Antibacterial activity of the synthesized compounds was determined following guidelines established by the Clinical and Laboratory Standards Institute M07-A10 (CLSI 2015), following the broth microdilution method. Briefly, the test articles were dissolved in 100% DMSO, diluted by 2-fold serial titrations in the same vehicle (100% DMSO), for a total of 11 concentrations. A 4 μL aliquot of each dilution was then added to 196 μL of broth medium seeded with the bacterial suspension in wells of a 96 well plate (bacterial count: 2×10^5 to 8×10^5 colony forming units/mL final). The highest test substance concentration was 1028 μg/mL, and the final vehicle concentration was 2 percent. Following incubation, the test plate was visually examined, and each well was scored for growth or complete inhibition of growth. The minimum inhibitory concentration was determined as the lowest concentration were no growth of the bacterial was observed. Each test article was assayed in duplicate.

[4] = tested on: Methicillin resistant Staphylococcus aureus; test: as above; assay type: cell-based; settings: compound alone
Description: as §1

[5] = tested on: Multidrug resistant Pseudomonas aeruginosa; test: as above; assay type: cell-based; settings: compound alone
Description: as §1

[6] = tested on: Carbapenem resistant Acinetobacter baumannii; test: as above; assay type: cell-based; settings: compound alone
Description: as §1

[7] = tested on: Vancomycin resistant Enterococcus faecalis; test: as above; assay type: cell-based; settings: compound alone
Description: as §1

MRSA = test: Rescue concentration of substituted phenyl azaindole derivatives; assay type: cell-based, Staphylococcus aureus; settings: Amoxicillin fixed at 2 μg/mL
Description: (§2) The antibiotic adjuvant activity of the SPazaBIMs were evaluated in combination with representative antibiotics (representing 13 antibiotic classes) against the 19 pathogens strains listed in Table 3. To assess the adjuvant properties of the SP-azaBIM molecules, a modified checkerboard minimum inhibitory concentration assay was used. A fixed concentration of the respective antibiotic (susceptible breakpoint concentration) was mixed with a twofold dilution series of the test SP-azaBIM (FIG. 1). This was to determine the concentration of SP-azaBIM needed potentiate the antibiotic at a clinically susceptible breakpoint concentration. Antibiotic susceptible breakpoint concentrations for the respective bacteria were determined using Clinical Laboratory Standards Institute (CLSI) criteria M100 ED31.
(§3) In this study, only those antibiotics to which the bacterial was classed as resistant were included in the adjuvant assays. In this assay we recorded the rescue concentration of the SP-BIM for a respective antibiotic. The rescue concentration was defined as the concentration of the adjuvant that reduces the minimum inhibitory concentration (MIC) of an antibiotic to the susceptibility breakpoint.
(§4) Immediately prior to testing, the respective antibiotic and SP-azaBIM was dissolved in sterile deionised water at 20× the required test concentration. Each microtiter well was then inoculated with 180 μl of bacterial inoculum of 10^6 CFU/ml in ca-MHB, and 10 μl each if the antibiotic and SP-azaBIM was added to the plates. These plates were then incubated at 35° C. for 24 h under aerobic conditions. A similar method was followed for the fastidious pathogens except that they were cultured in ca-MHB with 5% sheep blood and 5% CO2.
(§5) Bacterial growth was visually inspected after the incubation period and the rescue concentration of the test SP-azaBIM was determined as the lowest concentration of the compound needed to reduce bacterial growth by 99.99% at the susceptible breakpoint concentration of the antibiotic. For example, CLSI states that Pseudomonas aeruginosa is susceptible to the Imipenem if the MIC is ≤2 μg mL^−1. If the bacteria can tolerate this concentration in vitro, then the bacteria has an intermediate or absolute resistance toward that antibiotic. The goal was to determine the concentration of SP-azaBIM needed to cause P. aeruginosa death at 2 μg mL^−1 of Imipenem therefore restoring susceptibility of the bacteria to toward the antibiotic.
(§6) Phenyl azaindole compounds are also tested for their adjuvant activities and the method is shown in Example 39.

K. pneumoniae = test: as above; assay type: cell-based; settings: for Rescue concentration, K. pneumoniae Ciprofloxacin (1 μg/mL): Ciprofloxacin fixed at 1 μg/mL; for Rescue concentration, K. pneumoniae Imipenem (1 μg/mL): Imipenem fixed at 1 μg/mL
Description: as §2, §3, §4, §5, §6

P. aeruginosa = test: as above; assay type: cell-based; settings: Imipenem fixed at 1 μg/mL
Description: as §2, §3, §4
Bacterial growth was visually inspected after the incubation period and the rescue concentration of the test SP-azaBIM was determined as the lowest concentration of the compound needed to reduce bacterial growth by 99.99% at the susceptible breakpoint concentration of the antibiotic. […] If the bacteria can tolerate this concentration in vitro, then the bacteria has an intermediate or absolute resistance toward that antibiotic. […]
as §6

Row | Structure (SMILES) | MIC [3] | MIC [4] | MIC [5] | MIC [6] | MIC [7] | Efficacy of antibiotic monotherapy against K. pneumoniae 7225 [1] | mexA efflux pump gene expression above untreated cells (peak) ([2]; Meropenem only) | norB efflux pump gene expression above untreated cells (peak) ([2]; Meropenem only) | ROB gene expression compared to untreated cells ([2]; 1 h) | ROB gene expression compared to untreated cells ([2]; 6 h) | soxS gene expression compared to untreated cells ([2]; 6 h) | soxS gene expression compared to untreated cells ([2]; initial (1 h)) | Rescue concentration, MRSA Amoxicillin (2 μg/mL) (MRSA) | Rescue concentration, K. pneumoniae Ciprofloxacin (1 μg/mL) (K. pneumoniae) | Rescue concentration, K. pneumoniae Imipenem (1 μg/mL) (K. pneumoniae) | Rescue concentration, P. aeruginosa Imipenem (1 μg/mL) (P. aeruginosa)
1 | C[C@@H](O)[C@H]1C(=O)N2C(C(=O)O)=C(S[C@@H]3CN[C@H](C(=O)N(C)C)C3)[C@H](C)[C@H]12 [Meropenem, reference compound] |  |  |  |  |  | ineffective | 8.7 folds | 2.2 folds | approximately 3 folds | 12 folds | 18 folds | 3 folds |  |  |  | 
2 | COc1ccc(C(O)c2c[nH]c3cnc(Br)cc23)cc1OC (stereo not shown) [3,4 Di methoxy 5Br-6aza-OH, (5-bromo-1H-pyrrolo[2,3-c]pyridin-3-yl)(3,4-dimethoxyphenyl)methanol] | < 1020 µg/mL | < 1020 µg/mL | < 1020 µg/mL | < 1020 µg/mL | < 1020 µg/mL |  |  |  |  |  |  |  | 2 µg/mL | <256 µg/mL | <256 µg/mL | <256 µg/mL
3 | Nc1cccc(C(O)c2c[nH]c3cnccc23)c1 (stereo not shown) [Compound 3NH2-6aza-OH, (3-aminophenyl)(1H-pyrrolo[2,3-c]pyridin-3-yl)methanol] | < 1020 µg/mL | < 1020 µg/mL | < 1020 µg/mL | < 1020 µg/mL | < 1020 µg/mL |  |  |  |  |  |  |  | 8 µg/mL | 64 µg/mL | 32 µg/mL | 32 µg/mL
4 | OC(c1cccc(Br)c1)c1c[nH]c2cnccc12 (stereo not shown) [Compound 3Br-6aza-OH, (3-bromophenyl)(1H-pyrrolo[2,3-c]pyridin-3-yl)methanol] | < 1020 µg/mL | < 1020 µg/mL | < 1020 µg/mL | < 1020 µg/mL | < 1020 µg/mL |  |  |  |  |  |  |  | 1 µg/mL | 4 µg/mL | 4 µg/mL | 32 µg/mL
5 | Nc1ccc(C(O)c2c[nH]c3cnccc23)cc1 (stereo not shown) [Compound 4NH2-6aza-OH, (4-aminophenyl)(1H-pyrrolo[2,3-c]pyridin-3-yl)methanol] | < 1020 µg/mL | < 1020 µg/mL | < 1020 µg/mL | < 1020 µg/mL | < 1020 µg/mL |  |  |  |  |  |  |  | 8 µg/mL | 64 µg/mL | 16 µg/mL | 128 µg/mL

The next lines start with results.

Row | MIC [3] | MIC [4] | MIC [5] | MIC [6] | MIC [7] | Structure (SMILES) | Efficacy of antibiotic monotherapy against K. pneumoniae 7225 [1] | mexA efflux pump gene expression above untreated cells (peak) ([2]; Meropenem only) | norB efflux pump gene expression above untreated cells (peak) ([2]; Meropenem only) | ROB gene expression compared to untreated cells ([2]; 1 h) | ROB gene expression compared to untreated cells ([2]; 6 h) | soxS gene expression compared to untreated cells ([2]; 6 h) | soxS gene expression compared to untreated cells ([2]; initial (1 h)) | Rescue concentration, MRSA Amoxicillin (2 μg/mL) (MRSA) | Rescue concentration, K. pneumoniae Ciprofloxacin (1 μg/mL) (K. pneumoniae) | Rescue concentration, K. pneumoniae Imipenem (1 μg/mL) (K. pneumoniae) | Rescue concentration, P. aeruginosa Imipenem (1 μg/mL) (P. aeruginosa)
6 | < 1020 µg/mL | < 1020 µg/mL | < 1020 µg/mL | < 1020 µg/mL | < 1020 µg/mL | OC(c1ccc(Br)cc1)c1c[nH]c2c(Cl)nccc12 (stereo not shown) [4Br-7Cl-6aza-OH, (4-bromophenyl)(7-chloro-1H-pyrrolo[2,3-c]pyridin-3-yl)methanol] |  |  |  |  |  |  |  | 2 µg/mL | <256 µg/mL | <256 µg/mL | <256 µg/mL
7 | < 1020 µg/mL | < 1020 µg/mL | < 1020 µg/mL | < 1020 µg/mL | < 1020 µg/mL | O=[N+]([O-])c1ccc(C(O)c2c[nH]c3c(Cl)nc(Br)cc23)cc1 (stereo not shown) [4NO2-5Br-7Cl-6aza-OH, (5-bromo-7-chloro-1H-pyrrolo[2,3-c]pyridin-3-yl)(4-nitrophenyl)methanol] |  |  |  |  |  |  |  | 16 µg/mL | <256 µg/mL | <256 µg/mL | <256 µg/mL
8 | < 1020 µg/mL | < 1020 µg/mL | < 1020 µg/mL | < 1020 µg/mL | < 1020 µg/mL | OC(c1ccc(Br)cc1)c1c[nH]c2cnccc12 (stereo not shown) [Compound 4Br-6aza-OH, (4-bromophenyl)(1H-pyrrolo[2,3-c]pyridin-3-yl)methanol] |  |  |  |  |  |  |  | 32 µg/mL | 4 µg/mL | 8 µg/mL | 16 µg/mL
